From BindingDB's records for doi:10.1021/jm960416g (Universidad Complutense, 1996)

Columns and labels:
D(2) dopamine receptor = D(2) dopamine receptor (Rattus norvegicus, UniProt P61169); test: Binding affinity towards dopamine receptor D2 using [3H]-raclopride radioligand.
[1] = target: T1, 5-hydroxytryptamine receptor 1A (Rattus norvegicus, UniProt P19327); test: Binding affinity towards rat 5-hydroxytryptamine 1A receptor using [3H]8-OH-DPAT radioligand.
T1 sequence (P19327 whole entry): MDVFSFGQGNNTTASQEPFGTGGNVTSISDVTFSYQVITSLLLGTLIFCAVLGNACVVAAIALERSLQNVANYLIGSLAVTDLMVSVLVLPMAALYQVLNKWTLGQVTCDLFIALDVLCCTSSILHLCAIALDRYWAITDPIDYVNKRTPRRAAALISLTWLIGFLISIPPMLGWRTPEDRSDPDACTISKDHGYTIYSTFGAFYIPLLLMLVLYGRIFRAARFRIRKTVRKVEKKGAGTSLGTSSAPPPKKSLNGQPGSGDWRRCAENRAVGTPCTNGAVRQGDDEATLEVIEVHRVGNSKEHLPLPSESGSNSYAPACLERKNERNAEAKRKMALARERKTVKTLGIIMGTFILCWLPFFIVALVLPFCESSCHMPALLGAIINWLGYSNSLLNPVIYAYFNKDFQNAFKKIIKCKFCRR

Sequence of D(2) dopamine receptor (P61169 whole entry): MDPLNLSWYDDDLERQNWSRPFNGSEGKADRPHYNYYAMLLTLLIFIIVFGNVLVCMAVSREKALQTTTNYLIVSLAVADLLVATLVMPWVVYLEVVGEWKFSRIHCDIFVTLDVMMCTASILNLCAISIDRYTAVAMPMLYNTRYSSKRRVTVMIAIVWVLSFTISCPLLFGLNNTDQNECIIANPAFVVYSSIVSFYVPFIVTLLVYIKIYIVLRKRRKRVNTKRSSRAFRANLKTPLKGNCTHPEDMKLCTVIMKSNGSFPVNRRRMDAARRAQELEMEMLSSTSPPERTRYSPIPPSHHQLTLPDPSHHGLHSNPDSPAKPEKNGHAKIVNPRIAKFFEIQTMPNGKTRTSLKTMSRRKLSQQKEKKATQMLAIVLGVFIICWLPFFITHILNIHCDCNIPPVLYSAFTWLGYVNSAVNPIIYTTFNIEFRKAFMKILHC

| Ki (D(2) dopamine receptor) [nM] | Ki [1] [nM] | SMILES |
| --- | --- | --- |
| > 1000 |  | COc1ccccc1N1CCN(CCCn2c(O)c3n(c2=O)CCC3)CC1 [2-{3-[4-(2-Methoxy-phenyl)-piperazin-1-yl]-propyl}-tetrahydro-pyrrolo[1,2-c]imidazole-1,3-dione] |
| > 1000 |  | COc1ccccc1N1CCN(CCCn2c(O)c3n(c2=O)CCCC3)CC1 [2-{3-[4-(2-Methoxy-phenyl)-piperazin-1-yl]-propyl}-tetrahydro-imidazo[1,5-a]pyridine-1,3-dione] |
| > 1000 |  | COc1ccccc1N1CCN(CCCCn2c(O)c3n(c2=O)CCCC3)CC1 [2-{4-[4-(2-Methoxy-phenyl)-piperazin-1-yl]-butyl}-tetrahydro-imidazo[1,5-a]pyridine-1,3-dione] |
| > 1000 |  | O=c1n(CCCN2CCN(c3cccc(C(F)(F)F)c3)CC2)c(O)c2n1CCCC2 [2-{3-[4-(3-Trifluoromethyl-phenyl)-piperazin-1-yl]-propyl}-tetrahydro-imidazo[1,5-a]pyridine-1,3-dione] |
| > 1000 | > 1000 | O=c1n(CCCCN2CCN(c3ccc([N+](=O)[O-])cc3)CC2)c(O)c2n1CCCC2 [2-{4-[4-(4-Nitro-phenyl)-piperazin-1-yl]-butyl}-tetrahydro-imidazo[1,5-a]pyridine-1,3-dione] |
| > 1000 |  | O=c1n(CCCN2CCN(c3cccc(Cl)c3)CC2)c(O)c2n1CCC2 [2-{3-[4-(3-Chloro-phenyl)-piperazin-1-yl]-propyl}-tetrahydro-pyrrolo[1,2-c]imidazole-1,3-dione] |
| > 10000 | > 10000 | O=c1n(CCCN2CCN(c3ccc([N+](=O)[O-])cc3)CC2)c(O)c2n1CCC2 [2-{3-[4-(4-Nitro-phenyl)-piperazin-1-yl]-propyl}-tetrahydro-pyrrolo[1,2-c]imidazole-1,3-dione] |
| > 1000 |  | O=c1n(CCCN2CCN(c3cccc(Cl)c3)CC2)c(O)c2n1CCCC2 [2-{3-[4-(3-Chloro-phenyl)-piperazin-1-yl]-propyl}-tetrahydro-imidazo[1,5-a]pyridine-1,3-dione] |
| > 10000 | > 10000 | O=c1n(CCCN2CCN(c3ccc([N+](=O)[O-])cc3)CC2)c(O)c2n1CCCC2 [2-{3-[4-(4-Nitro-phenyl)-piperazin-1-yl]-propyl}-tetrahydro-imidazo[1,5-a]pyridine-1,3-dione] |
| > 1000 |  | O=c1n(CCCN2CCN(c3cccc(C(F)(F)F)c3)CC2)c(O)c2n1CCC2 [2-{3-[4-(3-Trifluoromethyl-phenyl)-piperazin-1-yl]-propyl}-tetrahydro-pyrrolo[1,2-c]imidazole-1,3-dione] |
| > 1000 |  | O=c1n(CCCCN2CCN(c3cccc(C(F)(F)F)c3)CC2)c(O)c2n1CCC2 [2-{4-[4-(3-Trifluoromethyl-phenyl)-piperazin-1-yl]-butyl}-tetrahydro-pyrrolo[1,2-c]imidazole-1,3-dione] |
| > 1000 |  | O=c1n(CCCCN2CCN(c3ccc(F)cc3)CC2)c(O)c2n1CCC2 [2-{4-[4-(4-Fluoro-phenyl)-piperazin-1-yl]-butyl}-tetrahydro-pyrrolo[1,2-c]imidazole-1,3-dione] |
| > 1000 | > 1000 | O=c1n(CCCN2CCN(c3ccc(F)cc3)CC2)c(O)c2n1CCC2 [2-{3-[4-(4-Fluoro-phenyl)-piperazin-1-yl]-propyl}-tetrahydro-pyrrolo[1,2-c]imidazole-1,3-dione] |

The next lines start with the compound.

| SMILES | Ki (D(2) dopamine receptor) [nM] | Ki [1] [nM] |
| --- | --- | --- |
| O=c1n(CCN2CCN(c3ccc([N+](=O)[O-])cc3)CC2)c(O)c2n1CCC2 [2-{2-[4-(4-Nitro-phenyl)-piperazin-1-yl]-ethyl}-tetrahydro-pyrrolo[1,2-c]imidazole-1,3-dione] | > 10000 | > 10000 |
| O=c1n(CCN2CCN(c3ccc([N+](=O)[O-])cc3)CC2)c(O)c2n1CCCC2 [2-{2-[4-(4-Nitro-phenyl)-piperazin-1-yl]-ethyl}-tetrahydro-imidazo[1,5-a]pyridine-1,3-dione] | > 10000 | > 10000 |
| O=c1n(CN2CCN(c3ccccc3)CC2)c(O)c2n1CCCC2 [2-(4-Phenyl-piperazin-1-ylmethyl)-tetrahydro-imidazo[1,5-a]pyridine-1,3-dione] | > 10000 |  |
| O=c1n(CCN2CCN(c3cccc(C(F)(F)F)c3)CC2)c(O)c2n1CCC2 [2-{2-[4-(3-Trifluoromethyl-phenyl)-piperazin-1-yl]-ethyl}-tetrahydro-pyrrolo[1,2-c]imidazole-1,3-dione] | > 1000 |  |
| O=c1n(CCCN2CCN(c3ccc(F)cc3)CC2)c(O)c2n1CCCC2 | > 1000 |  |
| O=c1n(CCN2CCN(c3cccc(Cl)c3)CC2)c(O)c2n1CCCC2 [2-{2-[4-(3-Chloro-phenyl)-piperazin-1-yl]-ethyl}-tetrahydro-imidazo[1,5-a]pyridine-1,3-dione] | > 1000 |  |
| O=c1n(CN2CCN(c3ccc(F)cc3)CC2)c(O)c2n1CCCC2 [2-[4-(4-Fluoro-phenyl)-piperazin-1-ylmethyl]-tetrahydro-imidazo[1,5-a]pyridine-1,3-dione] | > 10000 |  |
| O=c1n(CCN2CCN(c3cccc(C(F)(F)F)c3)CC2)c(O)c2n1CCCC2 [2-{2-[4-(3-Trifluoromethyl-phenyl)-piperazin-1-yl]-ethyl}-tetrahydro-imidazo[1,5-a]pyridine-1,3-dione] | > 1000 |  |
| COc1ccccc1N1CCN(Cn2c(O)c3n(c2=O)CCCC3)CC1 [2-[4-(2-Methoxy-phenyl)-piperazin-1-ylmethyl]-tetrahydro-imidazo[1,5-a]pyridine-1,3-dione] | > 10000 |  |
| O=c1n(CN2CCN(c3cccc(C(F)(F)F)c3)CC2)c(O)c2n1CCCC2 [2-[4-(3-Trifluoromethyl-phenyl)-piperazin-1-ylmethyl]-tetrahydro-imidazo[1,5-a]pyridine-1,3-dione] | > 1000 |  |
| O=c1n(CCN2CCN(c3ccc(F)cc3)CC2)c(O)c2n1CCC2 [2-{2-[4-(4-Fluoro-phenyl)-piperazin-1-yl]-ethyl}-tetrahydro-pyrrolo[1,2-c]imidazole-1,3-dione] | > 10000 | > 10000 |
| O=c1n(CN2CCN(c3cccc(C(F)(F)F)c3)CC2)c(O)c2n1CCC2 [2-[4-(3-Trifluoromethyl-phenyl)-piperazin-1-ylmethyl]-tetrahydro-pyrrolo[1,2-c]imidazole-1,3-dione] | > 1000 |  |
| O=c1n(CCCCN2CCN(c3ccccc3)CC2)c(O)c2n1CCCC2 [2-[4-(4-Phenyl-piperazin-1-yl)-butyl]-tetrahydro-imidazo[1,5-a]pyridine-1,3-dione] | > 1000 |  |
| O=c1n(CN2CCN(c3ccc(F)cc3)CC2)c(O)c2n1CCC2 [2-[4-(4-Fluoro-phenyl)-piperazin-1-ylmethyl]-tetrahydro-pyrrolo[1,2-c]imidazole-1,3-dione] | > 10000 |  |
| O=c1n(CCCN2CCN(c3ccccc3)CC2)c(O)c2n1CCC2 [2-[3-(4-Phenyl-piperazin-1-yl)-propyl]-tetrahydro-pyrrolo[1,2-c]imidazole-1,3-dione] | > 1000 |  |
| O=c1n(CN2CCN(c3ccc([N+](=O)[O-])cc3)CC2)c(O)c2n1CCCC2 [2-[4-(4-Nitro-phenyl)-piperazin-1-ylmethyl]-tetrahydro-imidazo[1,5-a]pyridine-1,3-dione] | > 10000 | > 1000 |
| O=c1n(CN2CCN(c3ccc([N+](=O)[O-])cc3)CC2)c(O)c2n1CCC2 [2-[4-(4-Nitro-phenyl)-piperazin-1-ylmethyl]-tetrahydro-pyrrolo[1,2-c]imidazole-1,3-dione] | > 10000 | > 1000 |
| O=c1n(CCN2CCN(c3ccccc3)CC2)c(O)c2n1CCCC2 [2-[2-(4-Phenyl-piperazin-1-yl)-ethyl]-tetrahydro-imidazo[1,5-a]pyridine-1,3-dione] | > 1000 | > 1000 |
| O=c1n(CCN2CCN(c3ccccc3)CC2)c(O)c2n1CCC2 [2-[2-(4-Phenyl-piperazin-1-yl)-ethyl]-tetrahydro-pyrrolo[1,2-c]imidazole-1,3-dione] | > 1000 | > 1000 |
| O=c1n(CN2CCN(c3cccc(Cl)c3)CC2)c(O)c2n1CCC2 [2-[4-(3-Chloro-phenyl)-piperazin-1-ylmethyl]-tetrahydro-pyrrolo[1,2-c]imidazole-1,3-dione] | > 10000 |  |
| O=c1n(CCCN2CCN(c3ccccc3)CC2)c(O)c2n1CCCC2 [2-[3-(4-Phenyl-piperazin-1-yl)-propyl]-tetrahydro-imidazo[1,5-a]pyridine-1,3-dione] | > 1000 |  |
| O=c1n(CCN2CCN(c3cccc(Cl)c3)CC2)c(O)c2n1CCC2 [2-{2-[4-(3-Chloro-phenyl)-piperazin-1-yl]-ethyl}-tetrahydro-pyrrolo[1,2-c]imidazole-1,3-dione] | > 1000 |  |
| O=c1n(CCN2CCN(c3ccc(F)cc3)CC2)c(O)c2n1CCCC2 [2-{2-[4-(4-Fluoro-phenyl)-piperazin-1-yl]-ethyl}-tetrahydro-imidazo[1,5-a]pyridine-1,3-dione] | > 10000 | > 10000 |
| O=c1n(CN2CCN(c3ccccc3)CC2)c(O)c2n1CCC2 [2-(4-Phenyl-piperazin-1-ylmethyl)-tetrahydro-pyrrolo[1,2-c]imidazole-1,3-dione] | > 10000 |  |
| COc1ccccc1N1CCN(Cn2c(O)c3n(c2=O)CCC3)CC1 [2-[4-(2-Methoxy-phenyl)-piperazin-1-ylmethyl]-tetrahydro-pyrrolo[1,2-c]imidazole-1,3-dione] | > 1000 |  |
| O=c1n(CN2CCN(c3cccc(Cl)c3)CC2)c(O)c2n1CCCC2 [2-[4-(3-Chloro-phenyl)-piperazin-1-ylmethyl]-tetrahydro-imidazo[1,5-a]pyridine-1,3-dione] | > 10000 |  |
| O=c1n(CCCCN2CCN(c3ccc([N+](=O)[O-])cc3)CC2)c(O)c2n1CCC2 | > 1000 | > 1000 |
